The values below are quoted from earlier work in patent publication US10314839B2, “Diversion-resistant opioid formulations” (priority 2014, dated 2019).

Structures are written as SMILES. Where a name gives a salt, the structure may show the parent alone.

In data set [1] the test system is opioid receptor. To be noted: after oral doses.
For data set [2], the system named is opioid receptor.
The subject of data set [3] is mu over delta receptor sub-types.
The conditions of data set [4]: hydrochloride salt.

For the compound `C[C@H]1[C@H]2Cc3ccc(O)cc3[C@]1(C)CCN2CC1CC1` [cyclazocine], in the data set with opioid receptor [1], the Duration of action is about 24 h.

As to `O=C1CC[C@@]2(O)[C@H]3Cc4ccc(O)c5c4[C@@]2(CCN3CC2CC2)[C@H]1O5` [naltrexone], the “Opioid agonist effects / properties” value with opioid receptor [2] is “no opioid agonist properties”. In addition, the Protein binding result (in vivo) is on record as “approximately 21%”. The Oral bioavailability (oral administration) was 5-40%. Moreover, the “Preferential blocking action between receptor sub-types” value in data set [3] is listed as “strong preferential blocking action against mu over delta receptor sub-types”. For the same compound, the Duration of action in the data set on opioid receptor [1] is about 24 h.

Consider `O=C1CC[C@@]2(O)[C@H]3Cc4ccc(O)c5c4[C@@]2(CCN3CC2CC2)[C@H]1O5` [hydrochloride salt of naltrexone, naltrexone], for which the Solubility in water entry in data set [4] was “up to 100 mg/mL”.
